According to US7803930B2, “Antisense modulation of apolipoprotein B-expression” (Isis Pharmaceuticals, Inc., priority 2002, dated 2010):

Experiments:
[1] = system: mouse apolipoprotein B mRNA; test: Long-term study in lean CD-1 mice (Example 63): apolipoprotein B mRNA in liver; type: in vivo; details: after one month of treatment
Experimental: In accordance with the present invention, the toxicity of ISIS 301012 (SEQ ID NO: 247) is investigated in a long-term, 3 month study in mice. Two-month old male and female CD-1 mice (Charles River Laboratories, Wilmington, Mass.) are dosed with 2, 5, 12.5, 25 or 50 mg/kg of ISIS 301012 twice per week for first week, and every 4 days thereafter. The mice are maintained on a standard rodent diet. Saline and control oligonucleotide animals serve as controls and are injected on the same schedule. Each treatment group contains 6 to 10 mice of each sex, and each treatment group is duplicated, one group for a 1 month study termination, the other for a 3 month study termination. After the 1 or 3 month treatment periods, the mice are sacrificed and evaluated for target expression in liver, lipid levels in serum and indicators of toxicity. Liver samples are procured, RNA is isolated and apolipoprotein B mRNA expression is measured by real-time PCR as described in other examples herein. Serum lipids, including total cholesterol, LDL-cholesterol, HDL-cholesterol and triglycerides, are evaluated by routine clinical analysis using an Olympus Clinical Analyzer (Olympus America Inc., Melville, N.Y.). Ratios of LDL-cholesterol to HDL-cholesterol and total cholesterol to HDL-cholesterol are also calculated. […]

[2] = Long-term study in lean Cynomolgous monkeys (Example 64): serum lipids by nuclear magnetic resonance spectroscopy; type: in vivo, Cynomolgous monkey; details: one month
Experimental: […] Saline-treated animals serve as controls. Each treatment group includes 2 to 3 animals of each sex.
The results from the one month interval of the long term treatment are shown in Table 50 and are normalized to saline-treated animals for mRNA and to untreated baseline values for lipid levels. Total cholesterol, LDL-cholesterol, HDL-cholesterol, LDL particle concentration and triglyceride levels in serum were measured by nuclear magnetic resonance spectroscopy by Liposcience (Raleigh, N.C.). Additionally, the concentration of intact oligonucleotide in liver was measured by capillary gel electrophoresis and is presented as micrograms of oligonucleotide per gram of liver tissue. Each result represents the average of data from 4 animals (2 males and 2 females).

For “ISIS 301012: SEQ ID NO: 247, antisense oligonucleotide targeted to human apolipoprotein B (antisense GCCTCAGTCTGCTTCGCACC; chemistry not given here)”, the “reduction of mouse apolipoprotein B mRNA levels in liver” value [1] was 53%, the “HDL-cholesterol, % change normalized to untreated baseline value” (“HDL-cholesterol, % change normalized” for short) ([2]; intravenous 2 mg/kg) was −23% and the “LDL Particle concentration, % change normalized to untreated baseline value” ([2]; intravenous 2 mg/kg) was “+8%”. The “LDL-cholesterol, % change normalized to untreated baseline value” (shortened to “LDL-cholesterol, % change normalized”) ([2]; intravenous 2 mg/kg) was “+15%”, the “LDL/HDL, % change normalized to untreated baseline value” (“LDL/HDL, % change normalized” below) ([2]; intravenous 2 mg/kg) was “+94%” and the “Total cholesterol, % change normalized to untreated baseline value” (from here on “Total cholesterol, % change normalized”) ([2]; intravenous 2 mg/kg) was −6%. For the same substance, the “Total cholesterol/HDL, % change normalized to untreated baseline value” ([2]; intravenous 2 mg/kg) was “+44%”, the “Triglyceride, % change normalized to untreated baseline value” (“Triglyceride, % change normalized” for short) ([2]; intravenous 2 mg/kg) was “+26%” and the “HDL-cholesterol, % change normalized” value ([2]; intravenous 4 mg/kg) was −15%. For the same substance, the “LDL Particle concentration, % change normalized to untreated baseline value” ([2]; intravenous 4 mg/kg) was “+8%”, the “LDL-cholesterol, % change normalized” value ([2]; intravenous 4 mg/kg) was “+9%” and the “LDL/HDL, % change normalized” value ([2]; intravenous 4 mg/kg) was “+38%”. The “Total cholesterol, % change normalized” value ([2]; intravenous 4 mg/kg) was −2%, the “Total cholesterol/HDL, % change normalized to untreated baseline value” ([2]; intravenous 4 mg/kg) was “+22%” and the “Triglyceride, % change normalized” value ([2]; intravenous 4 mg/kg) was “+32%”. For the same substance, the “HDL-cholesterol, % change normalized” value ([2]; intravenous 12 mg/kg) was −8%, the “LDL Particle concentration, % change normalized to untreated baseline value” ([2]; intravenous 12 mg/kg) was −11% and the “LDL-cholesterol, % change normalized” value ([2]; intravenous 12 mg/kg) was “+3%”. The “LDL/HDL, % change normalized” value ([2]; intravenous 12 mg/kg) was “+44%”, the “Total cholesterol, % change normalized” value ([2]; intravenous 12 mg/kg) was −2% and the “Total cholesterol/HDL, % change normalized to untreated baseline value” ([2]; intravenous 12 mg/kg) was “+21%”. For the same substance, the “Triglyceride, % change normalized” value ([2]; intravenous 12 mg/kg) was “+15%”, the “HDL-cholesterol, % change normalized” value ([2]; subcutaneous 3.5 mg/kg) was “+13%” and the “LDL Particle concentration, % change normalized to untreated baseline value” ([2]; subcutaneous 3.5 mg/kg) was −14%. For the same substance, the “LDL-cholesterol, % change normalized” value ([2]; subcutaneous 3.5 mg/kg) was −4%, the “LDL/HDL, % change normalized” value ([2]; subcutaneous 3.5 mg/kg) was −15% and the “Total cholesterol, % change normalized” value ([2]; subcutaneous 3.5 mg/kg) was “+5%”. The “Total cholesterol/HDL, % change normalized to untreated baseline value” ([2]; subcutaneous 3.5 mg/kg) was −7%, the “Triglyceride, % change normalized” value ([2]; subcutaneous 3.5 mg/kg) was “+1%” and the “HDL-cholesterol, % change normalized” value ([2]; subcutaneous 20 mg/kg) was “+5%”. For the same substance, the “LDL Particle concentration, % change normalized to untreated baseline value” ([2]; subcutaneous 20 mg/kg) was −21%, the “LDL-cholesterol, % change normalized” value ([2]; subcutaneous 20 mg/kg) was −16% and the “LDL/HDL, % change normalized” value ([2]; subcutaneous 20 mg/kg) was −19%. For the same substance, the “Total cholesterol, % change normalized” value ([2]; subcutaneous 20 mg/kg) was −5%, the “Total cholesterol/HDL, % change normalized to untreated baseline value” ([2]; subcutaneous 20 mg/kg) was −10% and the “Triglyceride, % change normalized” value ([2]; subcutaneous 20 mg/kg) was −3%.
